Here are results for 13 molecules from PubChem BioAssay (NCI).

Among the test systems are SF-539 CNS; MALME-3M melanoma; XF 498 CNS; DLD-1 colon; DU-145 prostate; DMS 114 small cell lung; NCI/ADR-RES ovarian; HOP-62 NSCLC; TK-10 renal; M19-MEL melanoma; SNB-75 CNS; HT29 colon; MCF7 breast; CCRF-CEM leukemia.
Holding throughout (assay): growth of human tumour cells (NCI), 48 h

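A five-concentration, 48-hour dose response in 96-well plates underlies each endpoint, interpolated linearly between surrounding concentrations. GI50: concentration for 50% inhibition of growth. TGI: total growth inhibition.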

For `C=C1C(=O)OC2/C=C(\CO)C3OC3C3OC3(C)CC(OC(=O)/C(=C/C)COC(C)=O)C12` (stereo not given), the TGI with SF-539 CNS was found to be 7.38 µM; in the assay on MALME-3M melanoma, 3.09 µM; with XF 498 CNS it was 4.54 µM; with DLD-1 colon it was 2.53 µM; in the assay with DU-145 prostate it was 32.3 µM; with DMS 114 small cell lung, 13.2 µM. Also, the TGI was 41.8 µM in the assay with NCI/ADR-RES ovarian; 40.4 µM with HOP-62 NSCLC; 11.1 µM in the assay on TK-10 renal; 3.94 µM with M19-MEL melanoma; 23 µM in the assay with SNB-75 CNS; 15.3 µM in the assay with HT29 colon. Moreover, in the assay on MCF7 breast, the TGI stood at 20.1 µM.

Turning to `O=C1Nc2ccccc2C1(O)Cc1ccccn1` (stereo not given), the TGI in the assay on MALME-3M melanoma, with DU-145 prostate, in the assay on CCRF-CEM leukemia, with NCI/ADR-RES ovarian, in the assay with HOP-62 NSCLC and in the assay on TK-10 renal was over 100 µM each time. Also, the TGI with SNB-75 CNS, in the assay on HT29 colon and in the assay on MCF7 breast was over 100 µM in each case.

In the case of `CSc1nc2c(ncn2C2OC(CO)C(O)C(O)C2O)c(=O)n1C` (stereo not given), the TGI with SF-539 CNS, in the assay on MALME-3M melanoma, in the assay with XF 498 CNS, with DLD-1 colon, in the assay with CCRF-CEM leukemia and in the assay with DMS 114 small cell lung was over 100 µM in each case. Besides, the TGI with NCI/ADR-RES ovarian, in the assay with HOP-62 NSCLC, in the assay with M19-MEL melanoma, in the assay on SNB-75 CNS, with HT29 colon and in the assay on MCF7 breast was over 100 µM throughout.

Turning to `COc1ccc2[nH]c(=O)cc(C)c2c1[N+](=O)[O-]`, the TGI in the assay with SF-539 CNS, in the assay on MALME-3M melanoma, with XF 498 CNS, in the assay on DLD-1 colon, with CCRF-CEM leukemia and with DMS 114 small cell lung was over 100 µM throughout. Also, the TGI in the assay on HOP-62 NSCLC is over 100 µM; with TK-10 renal it was over 100 µM; with M19-MEL melanoma, over 100 µM; in the assay with SNB-75 CNS it was 55.7 µM; with HT29 colon, over 100 µM.

With `C=CCn1c(C)nc2cc(Nc3nc(N4CCCC4)nc4nc[nH]c34)ccc21`, the GI50 was over 100 µM with DU-145 prostate, 54.5 µM in the assay on CCRF-CEM leukemia and over 100 µM with NCI/ADR-RES ovarian. Further, the TGI in the assay with DU-145 prostate, in the assay on CCRF-CEM leukemia and in the assay with NCI/ADR-RES ovarian was over 100 µM throughout.

As for `O=c1c2cc([N+](=O)[O-])ccc2[nH]n1Cc1ccccc1Cl`, the TGI with SF-539 CNS, with MALME-3M melanoma, in the assay with DU-145 prostate, in the assay with CCRF-CEM leukemia, with NCI/ADR-RES ovarian and in the assay on HOP-62 NSCLC was over 100 µM throughout. In addition, the TGI with TK-10 renal was 99.9 µM; with SNB-75 CNS, over 100 µM; in the assay with HT29 colon, over 100 µM.

On to `Nc1nc2cc(COc3ccc(C(=O)O)cc3)ccc2nc1-c1ccccc1`, for which the TGI in the assay on SF-539 CNS, in the assay on DU-145 prostate, in the assay on CCRF-CEM leukemia, with HOP-62 NSCLC, with TK-10 renal and in the assay with SNB-75 CNS was over 10 µM throughout. For the same molecule, the TGI in the assay with HT29 colon and with MCF7 breast was over 10 µM in each case.

Take `Cc1c2cnccc2c(C)c2c1c1ccccc1n2CCCCCCCl`: the TGI with SF-539 CNS, in the assay on MALME-3M melanoma, in the assay with XF 498 CNS, in the assay with DLD-1 colon, in the assay with CCRF-CEM leukemia and in the assay on DMS 114 small cell lung was over 50 µM each time. For the same molecule, the TGI with NCI/ADR-RES ovarian is over 50 µM; in the assay on HOP-62 NSCLC, over 50 µM; in the assay on M19-MEL melanoma it was over 50 µM; in the assay with SNB-75 CNS it was over 31.6 µM; in the assay with HT29 colon, over 50 µM; in the assay with MCF7 breast it was over 50 µM.

In the case of `CC1=CC2=C(C=O)C(=O)[C@](C)(O)[C@@H](O)C2=CO1`, the TGI in the assay on SF-539 CNS was 97.5 µM; with MALME-3M melanoma it was over 70.2 µM; in the assay with XF 498 CNS it was over 100 µM; in the assay on DLD-1 colon it was over 100 µM; with CCRF-CEM leukemia, 59.3 µM; with NCI/ADR-RES ovarian, over 100 µM. Moreover, the TGI in the assay on HOP-62 NSCLC was 69 µM; with M19-MEL melanoma, over 73.5 µM; in the assay on SNB-75 CNS it was over 100 µM; in the assay with HT29 colon, over 100 µM; in the assay with MCF7 breast it was over 100 µM.

Regarding `CS(C)(=O)=Nn1c(=O)n2n(c1=O)[C@H]1CC[C@@H]2C1`, the TGI in the assay on SF-539 CNS, in the assay with MALME-3M melanoma, in the assay on DU-145 prostate, in the assay on CCRF-CEM leukemia, with NCI/ADR-RES ovarian and with HOP-62 NSCLC was over 100 µM in each case. Also, the TGI in the assay with TK-10 renal, with SNB-75 CNS, in the assay with HT29 colon and with MCF7 breast was over 100 µM in each case.

Consider `COc1cc(C2c3cc4c(cc3[C@@H](Nc3cnc5ccccc5c3)C3COC(=O)[C@H]23)OCO4)cc(OC)c1O` (stereo not given in full), for which the TGI came out at 0.82 µM with SF-539 CNS; 2.43 µM in the assay on MALME-3M melanoma; 4.66 µM with XF 498 CNS; 3.69 µM in the assay with DLD-1 colon; 0.463 µM with CCRF-CEM leukemia; 1.82 µM in the assay with DMS 114 small cell lung. Also, the TGI is 7.93 µM in the assay with NCI/ADR-RES ovarian; 0.481 µM with HOP-62 NSCLC; 3.28 µM with M19-MEL melanoma; 4.2 µM in the assay with HT29 colon; over 31.7 µM with MCF7 breast.

Take `O=C(N/N=C/c1cc(Cl)cc(Cl)c1[O-])c1ccccc1O.O=C(N/N=C/c1cc(Cl)cc(Cl)c1[O-])c1ccccc1O.[Mn+2]`: the GI50 with SF-539 CNS is 0.459 µM; in the assay on MALME-3M melanoma it was 1.34 µM. Also, the TGI came out at 4.51 µM with SF-539 CNS, 7.79 µM with MALME-3M melanoma, 16.2 µM in the assay on TK-10 renal and 22.9 µM with SNB-75 CNS.

Regarding `O=C1Sc2sc(=S)sc2SC1c1ccccc1` (stereo not given), the TGI was over 100 µM with SF-539 CNS; over 83.5 µM with MALME-3M melanoma; over 79.1 µM in the assay with XF 498 CNS; over 90.9 µM in the assay with DLD-1 colon; 91.5 µM in the assay on CCRF-CEM leukemia; over 100 µM in the assay with DMS 114 small cell lung. The TGI with NCI/ADR-RES ovarian was over 100 µM; in the assay on HOP-62 NSCLC, over 100 µM; in the assay on M19-MEL melanoma, over 100 µM; in the assay on SNB-75 CNS, over 81.4 µM; in the assay on HT29 colon, over 100 µM; in the assay on MCF7 breast, over 100 µM.
